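Step 1: Grow cells in 96-well plates. Step 2: Expose to compound for 48 hours at 5 concentrations. Step 3: Interpolate endpoints linearly; if unreached, use highest concentration. Definition used: TGI = concentration required for complete inhibition of growth.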

Experiment in all cases: NCI tumour cell line growth inhibition, 48 h
Test [1] deals with CCRF-CEM leukemia.
Test [2] concerns HCC-2998 colon.
Test [3] relates to HOP-62 NSCLC.
Test [4] concerns K-562 leukemia.
Test [5] concerns KM12 colon.
Test [6] concerns RPMI-8226 leukemia.
The test system of test [7] is SF-268 CNS.
In test [8] the test system is SK-MEL-28 melanoma.
The subject of test [9] is SK-MEL-5 melanoma.
Test [10] has as its system SN12C renal.
In test [11] the test system is UO-31 renal.

Regarding `CC(=O)OCC1OC(n2c(O)c(N=NC(N)=S)c3ccc([N+](=O)[O-])cc32)C(OC(C)=O)C1OC(C)=O` (centres undefined), the TGI is 64.8 µM in [1]; 65.6 µM in [2]; more than 100 µM in [3]; more than 100 µM in [4]; more than 100 µM in test [5]; more than 100 µM in test [6]. The TGI in [7], in [8], in test [9] and in test [10] was more than 100 µM in each case.

Consider `O=c1c2ccccc2nc(N/N=C/c2ccc(Cl)cc2)n1-c1ccccc1`, for which the TGI in [1], in test [2], in test [3], in [4], in [7] and in test [8] was more than 100 µM each time. Besides, the TGI in test [9] is more than 100 µM; in test [10] it was more than 100 µM; in test [11], 88 µM.

For `Cc1nn(C(=O)c2ccc(Cl)cc2)c2c1C(c1ccc(Cl)cc1)SC(N)=N2` (centres undefined), the TGI in [1], in test [2], in test [3], in test [4], in test [5] and in [6] was more than 10 µM in each case. For the same molecule, the TGI in test [7], in test [8], in test [9] and in test [10] was more than 10 µM each time.

With `CC(=O)OC(C)c1cc2c(s1)C(=O)c1ccsc1C2=O` (centres undefined), the TGI in [1] turned out to be 0.653 µM; in [2] it was 1.54 µM; in test [3], 0.281 µM; in test [4], 0.473 µM; in test [5], 0.306 µM; in test [6], 0.486 µM. Besides, the TGI in test [7] stood at 0.812 µM; in [9], 0.0743 µM; in test [10] it was 0.355 µM; in test [11], 0.354 µM.

Consider `COC1(OC)C2C=CC1C([C@](C)(N)CO)C2` (some centres undefined), for which the TGI in test [1], in test [2], in [3], in test [4], in test [5] and in [7] was more than 100 µM each time. Also, the TGI in [8], in test [9], in test [10] and in test [11] was more than 100 µM each time.

Take `COC1OC(Cn2cc([N+](=O)[O-])nc2C)C(O)C(O)C1O` (centres undefined): the TGI in test [1], in test [2], in test [3], in test [4], in test [5] and in test [6] was more than 100 µM in each case. Moreover, the TGI in test [8], in test [9] and in [11] was more than 100 µM each time.

For `COC(=O)CNC(=O)CSc1nnc(COc2ccc(Cl)cc2)n1-c1ccccc1`, the TGI in test [1] was more than 100 µM; in test [2], 59.1 µM; in test [3], more than 100 µM; in test [4], more than 100 µM; in test [5], more than 100 µM; in test [7] it was 46.6 µM. For the same molecule, the figures for the TGI in [8], in [10] and in [11] were 81.3 µM, 38.5 µM and 77.3 µM, respectively.

As to `CC[C@]1(Cc2ccc(OC)c(OC)c2)C=[N+]([O-])O[C@H](OCc2ccccc2)[C@@H]1OC(C)=O`, the TGI in test [1] is 55.6 µM; in [2], more than 100 µM; in test [3], more than 100 µM; in test [4], 56.8 µM; in test [5], 58.8 µM; in [6], 57.9 µM. For the same molecule, the TGI in [7] is 70.9 µM; in [8] it was 84.6 µM; in [9], more than 100 µM; in test [11], more than 100 µM.

For the molecule `O=C(O)CCC(NC(=O)c1ccc(CNc2nc3cc(C(F)(F)F)ccc3nc2C(=O)O)cc1)C(=O)O` (centres undefined), the TGI in test [1], in [2], in test [3], in test [4], in test [5] and in test [7] was more than 100 µM each time. The TGI in test [8] and in [11] was more than 100 µM throughout.

Regarding `Nn1c(CCCCCCCCc2n[nH]c(=S)n2N)n[nH]c1=S`, the TGI in test [1], in test [2], in [3], in test [4], in [5] and in [6] was more than 100 µM in each case. For the same molecule, the TGI in test [7], in [8], in test [10] and in test [11] was more than 100 µM in each case.

Consider `COc1cccc(CCn2c(N)c(C#N)c3ccc([N+](=O)[O-])cc3c2=O)c1`, for which the TGI was more than 31.6 µM in test [1]; more than 46.4 µM in [2]; more than 31.6 µM in [3]; 11.6 µM in test [4]; more than 31.6 µM in test [5]; more than 46.4 µM in [7]. The TGI in [8] is more than 100 µM; in test [9], more than 100 µM; in test [10] it was more than 100 µM; in [11], more than 46.4 µM.

Turning to `CCC(=O)CCC1=Nc2nnc(CCCCc3nnc4n3C(=O)C(CCC(=O)CC)=N4)n2C1=O`, the TGI in test [1], in test [2], in [3], in test [4], in test [5] and in test [6] was more than 100 µM each time. For the same molecule, the TGI in test [7], in [8], in test [10] and in test [11] was more than 100 µM in each case.

Consider `COc1cc(/C=N/n2c(C)n[nH]c2=O)cc(OC)c1OC`, for which the TGI in [1], in [2], in test [3], in test [4], in test [5] and in [7] was more than 100 µM throughout. The TGI in test [8], in [10] and in test [11] was more than 100 µM each time.

Turning to `C[Si](C)(C)/C=C/CN1C(=O)CCC1=O`, the TGI in test [1], in test [2], in test [4], in test [5], in test [6] and in test [7] was more than 100 µM each time. Moreover, the TGI in test [8], in test [9], in test [10] and in test [11] was more than 100 µM throughout.

(Values after PubChem BioAssay (NCI).)
